Inconclusive results and toxic doses are left out.
System: BDF1 mice, B16 melanoma ip, median survival T/C
Experiment: NCI In Vivo Anticancer Drug Screen. Data for tumor model B16 Melanoma (intraperitoneal) in B6D2F1 (BDF1) mice
Settings: endpoint: median survival time, higher = longer survival
Summary of the method: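 Values are ratios of treated (T) to vehicle-control (C) measurements of survival or tumor size in tumor-bearing mice.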

| Compound | T/C (dose: 1.8 mg/kg/injection, schedule: Q01DX009 (ip), vehicle: saline with Tween-80) | T/C (dose: 3.0 mg/kg/injection, schedule: Q01DX009 (ip), vehicle: saline with Tween-80) | T/C (dose: 5.0 mg/kg/injection, schedule: Q01DX009 (ip), vehicle: Klucel (hydroxypropylcellulose) (HPC)) | T/C (dose: 8.0 mg/kg/injection, schedule: Q01DX009 (ip), vehicle: acid diluted with saline) | T/C (dose: 14.0 mg/kg/injection, schedule: Q01DX009 (ip), vehicle: saline with Tween-80) | T/C (dose: 16.0 mg/kg/injection, schedule: Q01DX009 (ip), vehicle: saline with Tween-80) | T/C (dose: 16.0 mg/kg/injection, schedule: Q04DX003 (ip), vehicle: acid diluted with saline) | T/C (dose: 16.0 mg/kg/injection, schedule: Q04DX003 (ip), vehicle: saline with Tween-80) | T/C (dose: 32.0 mg/kg/injection, schedule: Q04DX003 (ip), vehicle: acid diluted with saline) | T/C (dose: 32.0 mg/kg/injection, schedule: Q04DX003 (ip), vehicle: saline with Tween-80) | T/C (dose: 100.0 mg/kg/injection, schedule: Q01DX009 (ip), vehicle: saline with Tween-80) | T/C (dose: 200.0 mg/kg/injection, schedule: Q01DX009 (ip), vehicle: saline with Tween-80) | T/C (dose: 400.0 mg/kg/injection, schedule: Q01DX009 (ip), vehicle: saline with Tween-80) |
| --- | --- | --- | --- | --- | --- | --- | --- | --- | --- | --- | --- | --- | --- |
| Cc1[nH]c(=O)[nH]c(=O)c1N(CCF)CCCl | 110 % of control | 110 % of control | 100 % of control | 123 % of control | 165 % of control | 121 % of control | 107 % of control | 123 % of control | 118 % of control | 180 % of control |  |  |  |
| COc1ccccc1NC(=O)Oc1ccc(OCc2ccccc2)cc1 |  |  |  |  |  |  |  |  |  |  | 105 % of control | 97 % of control | 92 % of control |
